Results from patent US20120146009A1, “NOVEL COMPOUND, FIELD-EFFECTIVE TRANSISTOR, SOLAR CELL, METHOD FOR PRODUCING SAID COMPOUND, FIELD-EFFECTIVE TRANSISTOR, AND SOLAR CELL, COMPOSITION FOR ORGANIC SEMICONDUCTOR LAYER, AND COMPOSITION FOR P-TYPE SEMICONDUCTOR LAYER” (Sharp Kabushiki Kaisha, priority 2009, published 2012).
Where two headings read alike, the source gives them in different places.

How the values were obtained:
[1] = from Reference Document 2; cited from earlier work
[2] = from Reference Document 1; cited from earlier work
[3] = same condition, left for 24 hours, Reference Document 1; cited from earlier work
[4] = background statement; cited from earlier work
[5] = Solubility in solvent; type: physicochemical
[6] = HOMO level (ionization potential) by photoelectric spectroscopy in the atmosphere; type: physicochemical
Description: (§1) An absorption spectrum (absorption peak wavelength λmax, molar absorbance coefficient c) of Compound 1 thus synthesized was measured. Further, a HOMO level (ionization potential) of Compound 1 was measured by photoelectric spectroscopy in the atmosphere (SC-2).
(§2) Note that, for the result of pentacene shown in Table 2, the absorption spectrum described in Reference Document 1 (J. Am. Chem. Soc. 2007, 129, 2225) was used, and the HOMO level described in Reference Document 2 (Jpn. J. Appl. Phys. 2005, 44, 561) was used.

[7] = Stability against aerial oxidation (absorption intensity of solution in air-saturated methylene chloride, dark place); type: physicochemical; details: immediately after preparation to 1 week
Description: Next, stability of Compound 1 against aerial oxidation was evaluated. A solution of Compound 1 was prepared with the use of air-saturated methylene chloride as a solvent, and was left in a dark place. The absorption spectrum was measured during a time period from immediately after the preparation to 1 week after the preparation, so as to trace how an absorption intensity of the solution of Compound 1 was changed during the above time period (see Reference Document 1 described above).

[8] = Properties of the isolated crystal in the atmosphere; type: physicochemical; details: yellow crystal
Description: Into an anhydrous DMF (15 ml) solution of Intermediate 1 (0.42 g, 1.5 mmol), sodium hydride (60%, 0.13 g, 3.1 mmol) was added little by little. The resultant solution was left at room temperature for 2 hours. After that, 1-bromohexane (0.5 g, 3 mmol) was added to the solution, and the solution was agitated for further 2 hours. A solvent was removed away under reduced pressure, and a residue was extracted with methylene chloride. The residue from which the solvent was distilled away was recrystallized from hexane so that 0.28 g of Compound 1 was obtained (yield: 41%).

[9] = Absorption spectrum in CH2Cl2; type: physicochemical
Description: as §1, §2

For c1ccc2cc3cc4cc5ccccc5cc4cc3cc2c1 [Pentacene, pentacene], the “Photoelectric spectroscopy HOMO” value [1] is listed as −5.0 eV, the “Absorption spectrum λ max” value [2] is listed as 575 nm and the “Change in absorption intensity of solution” value [3] is listed as “absorption intensity was substantially eliminated”.

For c1ccc2cc3c(cc2c1)Nc1cc2ccccc2cc1N3 [DHDAP, dihydrodiazapentacene], the Solubility [4] is given as “low in solubility”.

In the case of CCCCCCN1c2cc3ccccc3cc2N(CCCCCC)c2cc3ccccc3cc21 [Compound 1], the “Resolvability with respect to a solvent” value [5] is reported as “excellent resolvability”, the “Photoelectric spectroscopy HOMO” value [6] is reported as −4.89 eV and the “Change in absorption intensity of solution” value [7] is reported as “no change in absorption intensity”. For the same compound, the Hydroscopic property [8] was “no hydroscopic property”, the “Stability in the atmosphere” value [8] was “stable compound without any deterioration in the atmosphere” and the “Absorption spectrum λ max” value ([9]; in CH2CL2) was 422 nm. For the same compound, the “Absorption spectrum log ε” value ([9]; in CH2CL2, at λ max) was “(log ε = 4.58)”.
